Experimental data as given in US10434086B2, “Combination therapies with curaxins” (Incuron, Inc., priority 2014, dated 2019).
Read-outs that look alike come from different tables or passages of the source.

Experiments:
[1] = test system: patient-derived PDA #13756 tumors; experiment: PDA #13756 study: CBL0137/gemcitabine against patient-derived pancreatic tumor engrafts; assay type: in vivo, SCID mice
Text: (§1) Seventy and sixty female athymic nude mice were obtained for each H1975 Non-Small Cell Lung Cancer Xenograft study and split into treatment groups consisting of 10 animals per group (2 cages of 5 mice per cage).
(§2) Preparation and subcutaneous implantation of tumor pieces: HepG2 tumors (passage 2 for HepG2 study and passage 1 for HepG2 (sub-dose CLB0137) study) or Hep3B tumors (passage 1 for Hep3B study and passage 9 for Hep3B (sub-dose CLB0137) study) were propagated in athymic nude mice and harvested from euthanized mice when they reached ˜500-900 mm^3. PDA tumors (passage 6) were propagated in SCID mice (both flanks) and harvested from euthanized mice when they reached ˜600-700 mm^3 in size. Harvested tumors were transferred to a sterile Petri dish containing RPMI-10% FBS medium or D-PBS plus penicillin/streptomycin. Enough media was added to bathe the tumor in order to ensure the viability of the transplant material. Tumors were dissected into 2 mm×2 mm cubes using a sterile scalpel. Care was taken to make the pieces as uniform in size and shape as possible. Tumor pieces were implanted into recipient mice immediately after being prepared.
(§3) Tumor Size Measurements: Tumor size was measured by digital caliper in two dimensions (in mm): maximum length (l) and maximum width (w) taken perpendicular to one another. The measurements were used to calculate tumor volume according to the formula: tumor volume=(l×w2)/2 (w<l). The value obtained by this formula is also equal to the mass of the tumor in mg. Starting 2 days after tumor implantation, tumor measurements were made every 2-3 days prior to treatment initiation and then twice per week (e.g., on Day 1 (D1, the day of treatment initiation), D4, D8, D11, D15, D18, D22, D25, D29, D32, D36, D39, D43, D46, D50, D53 and D57). Tumor measurements were collected more frequently when tumor size approached the tumor size endpoint in order to prevent passing the endpoint between scheduled measurements.
(§4) Administration of test and control articles: Mice were administered the designated solutions when the mean tumor volume per treatment group was ˜45-200 mm^3.
The volume of dosing solution administered ip or iv was 8 ml/kg mouse body weight. Intravenous injections were performed via the tail vein. […]
Monitoring and Sample Collection: Twice daily, mice were monitored for mortality and morbidity for the duration of the experiment. […] All abnormal observations were documented and semi-quantitative scores were assigned for “body condition,” “posture,” and “activity.” Scores of 4, 3, 2, and 1 were assigned to normal conditions (4), and slightly (3), moderately (2) and severely (1) abnormal conditions, respectively. […]
Data analysis: For all study groups, maximum tumor growth inhibition was calculated for Day 11, 13, or 15 (Day X). […] For each tumor, relative tumor size was calculated relative to its size on Day 1 when treatment was initiated (i.e., fold tumor growth). […] Differences in tumor sizes between groups were determined using ANOVA analysis (GraphPad Prism 5 Software) where “*” refers to P=0.01-0.05 (significant), “**” refers to P=0.001-0.01 (very significant) and “***” refers to P<0.001 (extremely significant), Differences that were not statistically significant are indicated with “ns”. […] Tumor growth delay (T−C) was calculated by subtracting the median time for the control to reach the 1000 mm^3 size endpoint from that of the median time for the treated groups to reach the size endpoint.

H1975 NSCLC tumors = test system: H1975 NSCLC tumors
Procedure: as §1
Description of H1975 NSCLS test material: Human H1975 NSCLC cell line (originally from ATCC) suspension was mixed 1:1 with Matrigel at 5×10^7 cells/ml (5×10^6 cells delivered per 100 μl injection) and kept on ice until inoculation.
For the NSCLC studies, solutions were prepared in two lots (once per 2 weeks) to ensure that fresh solutions were used throughout the study.
Preparation and inoculation of tumor cells: The night before inoculation, the Matrigel was placed on ice in the refrigerator to thaw. Prior to the start of cell harvesting, a supply of pipettes, tubes and tips were placed into the freezer so that they were cold when it was time to work with the Matrigel. One ml syringes and ½″ 23 G needles were also pre-chilled. This step was necessary to prevent premature solidification of Matrigel, which becomes solid at room temperature or higher (i.e., 37° C.).
H1975 cell suspension was prepared immediately before tumor inoculation in PBS. H1975 cells at passage 16 were harvested from forty 150 mm diameter dishes and diluted to 10×10^7 cells/ml in PBS (5.87 ml). Just prior to inoculation, using pre-chilled tips and tubes, 4.5 ml of this cell suspension was mixed with an equal volume of Matrigel (1:1) to a total volume of 9 mL Cell suspensions were kept on ice. The final concentration of cells was […].
Prior to inoculation of mice, the tumor cell-Matrigel mixture was carefully mixed by inverting the tube several times. A pre-chilled 1 nil syringe was filled with tumor cell-Matrigel mixture and then a pre-chilled ½″ 23 G capped needle was attached to the end of syringe to perform the injection. The closed filled syringe was inverted several times and then 100 μl of the cell-Matrigel mixture was inoculated subcutaneously into the left flank of each mouse.
For inoculation, mice were anesthetized with isoflurane (3-4% induction in 100% O2, 1-2% maintenance) to aid in proper subcutaneous inoculation.
as §3, §4
For all groups, Q4 d dosing was performed on D1, 05, 09, 013, 017, 021, 025, and 029 of the study. For groups that received only one drug rather than both, the vehicle for the drug that was not given was administered in its place as a mock administration. The volume of dosing solution administered ip or iv was 8 ml/kg mouse body weight. Intravenous injections were performed via the tail vein. Administration of drugs was done slowly without force on the syringe.
Monitoring and Sample Collection: Twice daily, mice were monitored for mortality and morbidity for the duration of the experiment. […] All abnormal observations were documented and semi-quantitative scores were assigned for “body condition,” “posture,” and “activity.” Scores of 4, 3, 2, and 1 were assigned to normal conditions (4), and slightly (3), moderately (2) and severely (1) abnormal conditions, respectively.

[2] = test system: patient-derived PDA #13590 tumors; experiment: PDA #13590 study: CBL0137/gemcitabine against patient-derived pancreatic tumor engrafts; assay type: in vivo, SCID mice
Text: as §1, §2, §3, §4
The volume of dosing solution administered ip or iv was 8 ml/kg mouse body weight. Intravenous injections were performed via the tail vein. Administration of drugs was done slowly without force on the syringe.
Monitoring and Sample Collection: Twice daily, mice were monitored for mortality and morbidity for the duration of the experiment. […] All abnormal observations were documented and semi-quantitative scores were assigned for “body condition,” “posture,” and “activity.” Scores of 4, 3, 2, and 1 were assigned to normal conditions (4), and slightly (3), moderately (2) and severely (1) abnormal conditions, respectively. Cages were taken to a laminar flow hood and opened in order to clearly assess mouse activity.
Data analysis: For all study groups, maximum tumor growth inhibition was calculated for Day 11, 13, or 15 (Day X). […] For each tumor, relative tumor size was calculated relative to its size on Day 1 when treatment was initiated (i.e., fold tumor growth). To calculate the maximum tumor growth inhibition for each tumor, the following equation was used: 100−(fold tumor growth drug-treated Day X/mean fold tumor growth vehicle-treated Day X)*100. Differences in tumor sizes between groups were determined using ANOVA analysis (GraphPad Prism 5 Software) where “*” refers to P=0.01-0.05 (significant), “**” refers to P=0.001-0.01 (very significant) and “***” refers to P<0.001 (extremely significant), Differences that were not statistically significant are indicated with “ns”. […] Tumor growth delay (T−C) was calculated by subtracting the median time for the control to reach the 1000 mm^3 size endpoint from that of the median time for the treated groups to reach the size endpoint.

A549 = A549 engraft experiment; assay type: in vivo; details: one engraft experiment

## Nc1ccn([C@@H]2O[C@H](CO)[C@@H](O)C2(F)F)c(=O)n1 [gemcitabine]
[1]; Day 15, gemcitabine 40 mg/kg ip Q4d, CBL0137 80 mg/kg iv 1×/wk, 4 weeks
  mean fold tumor growth: 0.55 fold
[1]; Day 29
  tumor growth (in words): regression of all tumors
[1]; Day 54
  mean fold tumor growth: 26.7 fold
[1]; by Day 15
  individual tumors regressed or disappeared: 8/10
[1]; gemcitabine 40 mg/kg ip Q4d, CBL0137 80 mg/kg iv 1×/wk
  animal survival time: 54 days
H1975 NSCLC tumors; 2000 mm^3 size endpoint, vehicle 15.6 days
  median time to reach endpoint: 47.8 days
H1975 NSCLC tumors; Day 5, vehicle 1/9
  individual tumors smaller than at start of treatment on Day 1: 9/10
H1975 NSCLC tumors; Day 15
  tumor growth inhibition: 88.8%
H1975 NSCLC tumors; Day 15, vehicle 8.52-fold
  mean fold tumor growth: 0.958 fold
H1975 NSCLC tumors; Day 22
  tumor growth inhibition: 82.6%
H1975 NSCLC tumors; Day 22, CBL0137 70 mg/kg iv Q4d, gemcitabine 40 mg/kg ip Q4d, vehicle 15.2
  mean fold tumor growth: 2.7 fold
H1975 NSCLC tumors; Day 39
  mean fold tumor growth: 3.66 fold
H1975 NSCLC tumors; mouse, in vivo
  delay in tumor growth (relative to vehicle treatment): 32.2 days
  signs of morbidity: no signs of morbidity
  toxicity, cage-side observations: None of the cage-side observations were indicative of any toxicity
H1975 NSCLC tumors; vehicle 16 days
  median survival time (MST): 48.5 days
H1975 NSCLC tumors; vehicle 22 days
  median survival time (MST): 51.5 days
[2]; Day 29, vehicle 1/9
  individual tumors showing regression or disappeared: 6/6
[2]; Day 57
  mean fold tumor growth: 7.91±2.7 fold
[2]; Day 71
  mean fold tumor growth: 12.98±3.9 fold
[2]; Day 88, vehicle 0/5
  animals surviving to the end of the study: ¼
[2]; PDA #13590
  antitumor efficacy (in words): effective against PDA #13590 tumor growth as single agents
[2]; vehicle 46 days, study end Day 88
  median survival time (MST): 76.5 days
A549
  response of A549 in engraft experiment (in words): resistant to gemcitabine
